The kinase profiling compilation of Christmann-Franck et al. (2016)

Key:
Assay in all cases: KINOMEscan competition binding
Details in all cases: compound 10.0 µM
[1] = test system: EIF2AK4 KD2 (human), Q9P2K8 [S808G]
[2] = target: CDK14 (human) (UniProt O94921)
[3] = target: BLK (human) (UniProt P51451)
[4] = target: BTK (human) (UniProt Q06187)
[5] = target: SNRK (human) (UniProt Q9NRH2)
[6] = target: EPHA8 (human) (UniProt P29322)
[7] = target: HCK (human) (UniProt P08631)
[8] = target: LIMK1 (human) (UniProt P53667)
[9] = target: TNK2 (human) (UniProt Q07912)
[10] = target: MAP3K10 (human) (UniProt Q02779)
[11] = target: SRPK2 (human) (UniProt P78362)
[12] = target: CDC42BPA (human) (UniProt Q5VT25)
[13] = target: CAMK2B (human) (UniProt Q13554)
[14] = target: MAP4K1 (human) (UniProt Q92918)
[15] = target: MARK3 (human) (UniProt P27448)
[16] = target: SRPK1 (human) (UniProt Q96SB4)
[17] = target: MAP3K4 (human) (UniProt Q9Y6R4)
[18] = target: MAP3K6 (human) (UniProt O95382)
[19] = target: PHKG2 (human) (UniProt P15735)
[20] = target: PIP4K2C (human) (UniProt Q8TBX8)
[21] = target: NTRK3 (human) (UniProt Q16288)
[22] = target: FGFR3 (human) (UniProt P22607)
[23] = target: CSNK1A1L (human) (UniProt Q8N752)
[24] = target: DAPK3 (human) (UniProt O43293)
[25] = target: PAK3 (human) (UniProt O75914)
[26] = target: MAP2K7 (human) (UniProt O14733)
[27] = target: TYK2 JH1 catalytic (human) (UniProt P29597)
[28] = target: MAPK3 (human) (UniProt P27361)
[29] = target: MAPK14 (human) (UniProt Q16539)
[30] = target: MAP4K3 (human) (UniProt Q8IVH8)
[31] = target: LIMK2 (human) (UniProt P53671)
[32] = target: BRSK1 (human) (UniProt Q8TDC3)
[33] = target: CaMK1 (human) (UniProt Q14012)
[34] = target: YES1 (human) (UniProt P07947)
[35] = target: MAST1 (human) (UniProt Q9Y2H9)
[36] = target: RPS6KA4 KD1 (human) (UniProt O75676)
[37] = target: CSNK1A1 (human) (UniProt P48729)
[38] = target: PIM2 (human) (UniProt Q9P1W9)
[39] = target: GAK (human) (UniProt O14976)
[40] = target: GRK7 (human) (UniProt Q8WTQ7)

MAP3K6 (human), sequence (O95382 whole entry, looked up): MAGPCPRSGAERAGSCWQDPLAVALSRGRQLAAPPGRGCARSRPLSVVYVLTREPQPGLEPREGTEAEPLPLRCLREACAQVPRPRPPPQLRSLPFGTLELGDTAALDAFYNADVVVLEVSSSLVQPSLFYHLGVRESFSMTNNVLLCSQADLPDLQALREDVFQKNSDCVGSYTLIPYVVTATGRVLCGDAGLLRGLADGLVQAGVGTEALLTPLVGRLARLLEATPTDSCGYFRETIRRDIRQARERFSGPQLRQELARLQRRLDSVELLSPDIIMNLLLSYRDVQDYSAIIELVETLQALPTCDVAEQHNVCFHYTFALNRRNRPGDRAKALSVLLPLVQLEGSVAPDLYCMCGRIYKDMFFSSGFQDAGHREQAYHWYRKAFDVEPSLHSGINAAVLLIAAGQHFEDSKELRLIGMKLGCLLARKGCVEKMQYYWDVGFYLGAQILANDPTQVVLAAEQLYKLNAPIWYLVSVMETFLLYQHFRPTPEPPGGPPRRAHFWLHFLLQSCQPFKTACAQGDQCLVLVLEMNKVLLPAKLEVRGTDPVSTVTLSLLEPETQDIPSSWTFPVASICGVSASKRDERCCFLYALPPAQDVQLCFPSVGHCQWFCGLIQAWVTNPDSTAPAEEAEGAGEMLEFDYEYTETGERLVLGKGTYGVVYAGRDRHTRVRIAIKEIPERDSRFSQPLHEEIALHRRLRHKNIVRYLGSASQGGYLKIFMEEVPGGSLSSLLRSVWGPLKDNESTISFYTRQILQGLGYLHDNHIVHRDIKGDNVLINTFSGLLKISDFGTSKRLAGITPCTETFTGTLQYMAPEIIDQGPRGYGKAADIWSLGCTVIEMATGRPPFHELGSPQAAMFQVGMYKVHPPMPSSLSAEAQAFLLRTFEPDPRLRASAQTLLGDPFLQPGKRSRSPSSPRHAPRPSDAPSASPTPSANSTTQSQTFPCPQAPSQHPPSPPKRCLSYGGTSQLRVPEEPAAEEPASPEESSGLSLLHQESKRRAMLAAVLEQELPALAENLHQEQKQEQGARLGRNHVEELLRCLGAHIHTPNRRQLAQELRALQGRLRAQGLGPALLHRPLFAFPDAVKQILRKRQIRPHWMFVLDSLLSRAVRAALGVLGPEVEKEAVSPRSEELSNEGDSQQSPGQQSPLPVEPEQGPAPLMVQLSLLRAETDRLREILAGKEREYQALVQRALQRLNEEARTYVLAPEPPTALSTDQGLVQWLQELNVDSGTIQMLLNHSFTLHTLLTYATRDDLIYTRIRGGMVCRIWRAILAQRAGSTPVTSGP
SRPK2 (human), sequence (P78362 whole entry, looked up): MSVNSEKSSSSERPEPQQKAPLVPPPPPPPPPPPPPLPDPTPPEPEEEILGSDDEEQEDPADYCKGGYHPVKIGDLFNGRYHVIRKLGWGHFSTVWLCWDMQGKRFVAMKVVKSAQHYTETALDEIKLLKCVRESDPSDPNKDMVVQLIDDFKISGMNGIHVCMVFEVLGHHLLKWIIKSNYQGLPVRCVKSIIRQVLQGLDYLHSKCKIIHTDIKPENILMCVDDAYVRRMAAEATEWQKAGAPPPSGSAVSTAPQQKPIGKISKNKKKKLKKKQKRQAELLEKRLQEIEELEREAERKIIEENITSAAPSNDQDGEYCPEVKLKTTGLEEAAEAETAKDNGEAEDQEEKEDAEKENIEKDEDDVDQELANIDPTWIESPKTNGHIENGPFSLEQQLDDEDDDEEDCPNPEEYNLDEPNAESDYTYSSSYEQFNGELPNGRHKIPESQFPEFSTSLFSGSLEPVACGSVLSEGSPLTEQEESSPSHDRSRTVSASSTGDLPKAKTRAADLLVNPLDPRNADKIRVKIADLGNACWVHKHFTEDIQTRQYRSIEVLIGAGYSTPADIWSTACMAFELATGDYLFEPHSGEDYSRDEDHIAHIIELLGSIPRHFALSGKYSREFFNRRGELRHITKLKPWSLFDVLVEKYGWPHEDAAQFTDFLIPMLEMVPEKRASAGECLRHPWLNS
CDC42BPA (human), sequence (Q5VT25 whole entry, looked up): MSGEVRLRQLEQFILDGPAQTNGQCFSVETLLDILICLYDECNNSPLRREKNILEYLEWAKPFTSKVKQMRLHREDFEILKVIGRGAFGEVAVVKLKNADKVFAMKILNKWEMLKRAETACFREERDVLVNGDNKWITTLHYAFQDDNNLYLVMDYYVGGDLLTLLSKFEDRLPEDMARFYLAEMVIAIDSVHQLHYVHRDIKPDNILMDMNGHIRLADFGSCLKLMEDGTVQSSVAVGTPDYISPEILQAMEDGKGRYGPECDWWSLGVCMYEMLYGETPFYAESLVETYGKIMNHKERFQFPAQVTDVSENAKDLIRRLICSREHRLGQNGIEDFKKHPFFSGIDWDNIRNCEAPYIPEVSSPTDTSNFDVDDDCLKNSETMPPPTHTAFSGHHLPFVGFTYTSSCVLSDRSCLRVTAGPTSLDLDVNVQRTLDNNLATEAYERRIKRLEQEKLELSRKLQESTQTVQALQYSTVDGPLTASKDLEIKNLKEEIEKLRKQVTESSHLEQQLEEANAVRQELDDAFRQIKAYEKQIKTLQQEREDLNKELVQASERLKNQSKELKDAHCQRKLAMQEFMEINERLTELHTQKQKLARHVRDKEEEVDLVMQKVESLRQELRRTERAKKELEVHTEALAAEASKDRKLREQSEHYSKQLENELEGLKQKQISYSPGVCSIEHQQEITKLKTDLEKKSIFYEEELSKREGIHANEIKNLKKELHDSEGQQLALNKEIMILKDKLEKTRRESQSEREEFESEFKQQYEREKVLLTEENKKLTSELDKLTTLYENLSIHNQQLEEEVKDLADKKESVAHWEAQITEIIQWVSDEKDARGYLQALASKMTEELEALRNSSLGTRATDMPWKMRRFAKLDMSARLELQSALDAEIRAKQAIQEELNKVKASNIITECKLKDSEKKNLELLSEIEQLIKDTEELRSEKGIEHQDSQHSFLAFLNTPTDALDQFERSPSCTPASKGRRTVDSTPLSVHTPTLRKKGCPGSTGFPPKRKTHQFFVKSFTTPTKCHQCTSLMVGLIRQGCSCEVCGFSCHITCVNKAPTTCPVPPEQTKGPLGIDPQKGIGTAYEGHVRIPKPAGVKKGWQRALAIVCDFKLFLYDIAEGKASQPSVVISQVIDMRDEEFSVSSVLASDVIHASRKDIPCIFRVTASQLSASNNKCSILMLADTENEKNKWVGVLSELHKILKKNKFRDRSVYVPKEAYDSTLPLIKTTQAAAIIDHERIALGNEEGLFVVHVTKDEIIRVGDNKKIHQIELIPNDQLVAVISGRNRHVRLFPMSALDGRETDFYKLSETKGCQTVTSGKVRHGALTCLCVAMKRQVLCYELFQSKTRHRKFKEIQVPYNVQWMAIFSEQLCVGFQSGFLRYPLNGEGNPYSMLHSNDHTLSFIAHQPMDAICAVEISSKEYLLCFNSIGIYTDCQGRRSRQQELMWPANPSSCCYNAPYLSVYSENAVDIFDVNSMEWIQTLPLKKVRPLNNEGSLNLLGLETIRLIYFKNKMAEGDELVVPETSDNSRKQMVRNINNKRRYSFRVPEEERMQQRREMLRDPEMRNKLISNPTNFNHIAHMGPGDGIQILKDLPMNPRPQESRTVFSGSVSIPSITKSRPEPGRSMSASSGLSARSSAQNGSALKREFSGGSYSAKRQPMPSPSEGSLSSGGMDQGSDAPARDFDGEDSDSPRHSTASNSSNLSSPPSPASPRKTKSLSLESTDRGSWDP
MARK3 (human), sequence (P27448 whole entry, looked up): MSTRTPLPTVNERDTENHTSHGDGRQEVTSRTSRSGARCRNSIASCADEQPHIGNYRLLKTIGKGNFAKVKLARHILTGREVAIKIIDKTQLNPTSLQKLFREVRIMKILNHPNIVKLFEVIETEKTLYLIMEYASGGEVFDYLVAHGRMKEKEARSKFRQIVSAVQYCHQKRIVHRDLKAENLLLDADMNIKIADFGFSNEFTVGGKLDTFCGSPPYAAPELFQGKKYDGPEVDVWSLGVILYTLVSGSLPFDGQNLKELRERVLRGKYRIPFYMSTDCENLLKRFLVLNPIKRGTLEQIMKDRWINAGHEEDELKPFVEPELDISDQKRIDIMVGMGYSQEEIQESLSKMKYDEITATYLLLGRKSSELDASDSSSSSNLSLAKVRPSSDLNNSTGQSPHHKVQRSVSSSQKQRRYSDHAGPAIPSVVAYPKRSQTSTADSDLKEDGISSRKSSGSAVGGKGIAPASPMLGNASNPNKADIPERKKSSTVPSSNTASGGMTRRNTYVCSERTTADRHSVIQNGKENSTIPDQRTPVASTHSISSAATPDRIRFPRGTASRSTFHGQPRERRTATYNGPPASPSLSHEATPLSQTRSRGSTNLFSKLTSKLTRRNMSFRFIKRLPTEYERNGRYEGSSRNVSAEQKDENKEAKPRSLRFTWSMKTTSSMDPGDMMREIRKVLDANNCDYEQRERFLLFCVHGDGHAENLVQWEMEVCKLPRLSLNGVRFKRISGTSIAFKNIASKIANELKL
MAPK14 (human), sequence (Q16539 whole entry, looked up): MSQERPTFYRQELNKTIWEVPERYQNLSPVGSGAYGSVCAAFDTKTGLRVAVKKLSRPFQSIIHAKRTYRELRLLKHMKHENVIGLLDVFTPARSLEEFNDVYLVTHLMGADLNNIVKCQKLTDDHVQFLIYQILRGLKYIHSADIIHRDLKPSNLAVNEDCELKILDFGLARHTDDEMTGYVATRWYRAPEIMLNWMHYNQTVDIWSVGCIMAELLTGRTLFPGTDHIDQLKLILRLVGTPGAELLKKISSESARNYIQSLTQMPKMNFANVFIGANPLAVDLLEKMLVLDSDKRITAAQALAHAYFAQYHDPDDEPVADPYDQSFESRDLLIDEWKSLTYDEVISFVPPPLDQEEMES

Row | Structure (SMILES) | kinase still bound, per cent of control [1] | kinase still bound, per cent of control [2] | kinase still bound, per cent of control [3] | kinase still bound, per cent of control [4] | kinase still bound, per cent of control [5] | kinase still bound, per cent of control [6] | kinase still bound, per cent of control [7] | kinase still bound, per cent of control [8] | kinase still bound, per cent of control [9] | kinase still bound, per cent of control [10] | kinase still bound, per cent of control [11] | kinase still bound, per cent of control [12] | kinase still bound, per cent of control [13] | kinase still bound, per cent of control [14] | kinase still bound, per cent of control [15] | kinase still bound, per cent of control [16] | kinase still bound, per cent of control [17] | kinase still bound, per cent of control [18] | kinase still bound, per cent of control [19] | kinase still bound, per cent of control [20] | further results
1 | C=CC(=O)Nc1cc(NC(=O)c2ccc(C)c(NC(=O)c3ccno3)c2)cc(C(F)(F)F)c1 | 100% | 93% | 97% | 100% | 100% | 3.6% | 60% | 100% | 84% | 100% | 89% | 100% | 100% | 75% | 67% | 86% | 100% | 83% | 95% | 90% | kinase still bound, per cent of control [21]: 100%; kinase still bound, per cent of control [22]: 97%; kinase still bound, per cent of control [23]: 90%; kinase still bound, per cent of control [24]: 96%; kinase still bound, per cent of control [25]: 100%; kinase still bound, per cent of control [26]: 100%; kinase still bound, per cent of control [27]: 98%; kinase still bound, per cent of control [28]: 97%; kinase still bound, per cent of control [29]: 0.5%; kinase still bound, per cent of control [30]: 87%; kinase still bound, per cent of control [31]: 96%; kinase still bound, per cent of control [32]: 100%; kinase still bound, per cent of control [33]: 88%; kinase still bound, per cent of control [34]: 46%; kinase still bound, per cent of control [35]: 100%; kinase still bound, per cent of control [36]: 100%; kinase still bound, per cent of control [37]: 100%; kinase still bound, per cent of control [38]: 96%; kinase still bound, per cent of control [39]: 100%; kinase still bound, per cent of control [40]: 100%
2 | C=CC(=O)Nc1cccc(Nc2nc(N[C@H]3CC[C@H](N(C)C)CC3)nc3c2ncn3C(C)C)c1 | 59% | 98% | 17% | 35% | 68% | 100% | 27% | 100% | 46% | 84% | 92% | 82% | 80% | 74% | 81% | 52% | 100% | 86% | 44% | 66% | kinase still bound, per cent of control [21]: 28%; kinase still bound, per cent of control [22]: 68%; kinase still bound, per cent of control [23]: 1.5%; kinase still bound, per cent of control [24]: 23%; kinase still bound, per cent of control [25]: 100%; kinase still bound, per cent of control [26]: 100%; kinase still bound, per cent of control [27]: 34%; kinase still bound, per cent of control [28]: 100%; kinase still bound, per cent of control [29]: 95%; kinase still bound, per cent of control [30]: 25%; kinase still bound, per cent of control [31]: 100%; kinase still bound, per cent of control [32]: 88%; kinase still bound, per cent of control [33]: 93%; kinase still bound, per cent of control [34]: 23%; kinase still bound, per cent of control [35]: 83%; kinase still bound, per cent of control [36]: 59%; kinase still bound, per cent of control [37]: 0.65%; kinase still bound, per cent of control [38]: 100%; kinase still bound, per cent of control [39]: 44%; kinase still bound, per cent of control [40]: 8.7%
